Experiment: cn = amount concentration of the nth substance listed, in mol/dm3
Settings: 298.15 K, 101 kPa, Liquid, Direct current cell with electrodes

CCCCCCn1cc[n+](C)c1.F[P-](F)(F)(F)(F)F [1-hexyl-3-methylimidazolium hexafluorophosphate] + ClCCl
Settings | molar conductivity [S·m2/mol]
c1 = 2.071e-05 | 0.005749
c1 = 5.447e-05 | 0.004058
c1 = 8.254e-05 | 0.003448
c1 = 0.0001144 | 0.003025
c1 = 0.000155 | 0.002673
c1 = 0.0002089 | 0.002363
c1 = 0.0002627 | 0.002148
c1 = 0.0003123 | 0.001996
c1 = 0.0003903 | 0.001821
c1 = 0.0004551 | 0.00171

CCCCCCn1cc[n+](C)c1.F[B-](F)(F)F [1-hexyl-3-methylimidazolium tetrafluoroborate] + ClCCl
Settings | molar conductivity [S·m2/mol]
c1 = 5.56e-05 | 0.003176
c1 = 0.000168 | 0.001993
c1 = 0.000301 | 0.001551
c1 = 0.0004416 | 0.001315
c1 = 0.0005288 | 0.001218
c1 = 0.0006627 | 0.001107
c1 = 0.0007566 | 0.001048
c1 = 0.0009189 | 0.0009669
c1 = 0.001094 | 0.0009009
c1 = 0.001243 | 0.000856

CCCCCCCC[n+]1ccn(C)c1.F[B-](F)(F)F [1-methyl-3-octylimidazolium tetrafluoroborate] + ClCCl
Settings | molar conductivity [S·m2/mol]
c1 = 7.212e-05 | 0.002781
c1 = 0.0001299 | 0.002171
c1 = 0.000219 | 0.001735
c1 = 0.0002957 | 0.001524
c1 = 0.0003827 | 0.001364
c1 = 0.0004665 | 0.001253
c1 = 0.0005719 | 0.001149
c1 = 0.0006901 | 0.001061
c1 = 0.0008223 | 0.000986
c1 = 0.0009584 | 0.0009257

CCCCCCCC[n+]1ccn(C)c1.F[P-](F)(F)(F)(F)F [1-octyl-3-methylimidazolium hexafluorophosphate] + ClCCl
Settings | molar conductivity [S·m2/mol]
c1 = 2.186e-05 | 0.005349
c1 = 5.202e-05 | 0.003925
c1 = 8.128e-05 | 0.003298
c1 = 0.0001312 | 0.002717
c1 = 0.0001741 | 0.00242
c1 = 0.000228 | 0.002164
c1 = 0.0002847 | 0.001973
c1 = 0.00035 | 0.00181
c1 = 0.0004112 | 0.001693
c1 = 0.000468 | 0.001605

CCCC[N+](CCCC)(CCCC)CCCC.O=S(=O)([N-]S(=O)(=O)C(F)(F)F)C(F)(F)F [tetrabutylammonium bis[(trifluoromethyl)sulfonyl]imide] + ClCCl
Settings | molar conductivity [S·m2/mol]
c1 = 3.138e-05 | 0.007892
c1 = 6.11e-05 | 0.006903
c1 = 0.0001374 | 0.005603
c1 = 0.0001725 | 0.00525
c1 = 0.0002161 | 0.00489
c1 = 0.0002632 | 0.004603
c1 = 0.0003161 | 0.004342
c1 = 0.0003672 | 0.004133
c1 = 0.0004141 | 0.003988

CC[N+](CC)(CC)CC.O=S(=O)([N-]S(=O)(=O)C(F)(F)F)C(F)(F)F [tetraethylammonium bis[(trifluoromethyl)sulfonyl]imide] + ClCCl
Settings | molar conductivity [S·m2/mol]
c1 = 2.423e-05 | 0.009105
c1 = 5.571e-05 | 0.007427
c1 = 9.604e-05 | 0.006311
c1 = 0.0001485 | 0.005431
c1 = 0.0001889 | 0.005043
c1 = 0.0002419 | 0.004629
c1 = 0.0002877 | 0.004339
c1 = 0.0004028 | 0.003882
c1 = 0.0004632 | 0.003716

CC[N+](CC)(CC)CC.F[P-](F)(F)(F)(F)F [tetraethylammonium hexafluorophosphate] + ClCCl
Settings | molar conductivity [S·m2/mol]
c1 = 2.991e-05 | 0.008681
c1 = 7.038e-05 | 0.00678
c1 = 0.0001289 | 0.005542
c1 = 0.0001812 | 0.004911
c1 = 0.0002384 | 0.004448
c1 = 0.0002993 | 0.00409
c1 = 0.0003669 | 0.003794
c1 = 0.0004231 | 0.003599
c1 = 0.000508 | 0.003365
c1 = 0.0006057 | 0.003153

CC[N+](CC)(CC)CC.F[B-](F)(F)F [tetraethylammonium tetrafluoroborate] + ClCCl
Settings | molar conductivity [S·m2/mol]
c1 = 5.65e-05 | 0.006094
c1 = 0.000125 | 0.004646
c1 = 0.0002055 | 0.003888
c1 = 0.0002819 | 0.003459
c1 = 0.0003766 | 0.003101
c1 = 0.0004713 | 0.002847
c1 = 0.0005736 | 0.002643
c1 = 0.0006991 | 0.00245
c1 = 0.0007981 | 0.00233
c1 = 0.0008975 | 0.002227

C[N+](C)(C)C.O=S(=O)([N-]S(=O)(=O)C(F)(F)F)C(F)(F)F [tetramethylammonium bis[(trifluoromethyl)sulfonyl]imide] + ClCCl
Settings | molar conductivity [S·m2/mol]
c1 = 1.807e-05 | 0.006904
c1 = 4.669e-05 | 0.005019
c1 = 8.293e-05 | 0.004043
c1 = 0.0001225 | 0.003465
c1 = 0.0001669 | 0.003057
c1 = 0.000209 | 0.002792
c1 = 0.0002676 | 0.002521
c1 = 0.0003329 | 0.002305
c1 = 0.0004062 | 0.002123
c1 = 0.0004962 | 0.001957
